This is an account of results in patent US10064804B2, “Polymeric nitrones and their use in personal care” (Dow Global Technologies LLC, priority 2014, dated 2018).

The experiment is described as follows: Oxygen Radical Absorbance Capacity (ORAC) antioxidant potential. Particulars: ORAC test, test solutions at 100 micromolar; calculated from ORAC values relative to Trolox. As to the method: Antioxidant potential is evaluated using the Oxygen Radical Absorbance Capacity (ORAC) protocol. ORAC is a chemical in-vitro method based on the hydrogen atom transfer (HAT) mechanism (see N. Re et al., Free Radical Biology & Medicine, 26 (9/10), 1231 (1997)). ORAC measures antioxidant inhibition of peroxyl radical induced oxidations and thus reflects classical radical chain breaking antioxidant activity by H atom transfer. In this assay, the peroxyl radical reacts with a fluorescent probe to form a non-fluorescent product. This is quantitated using a fluorescence measurement. Antioxidant capacity is determined by decreased rate and amount of product formed over time. This assay depends upon the free radical damage to the fluorescent probe resulting in the change in its fluorescence intensity. The change of fluorescence intensity is an indicator of the degree of free radical damage. In the presence of an antioxidant, the inhibition of free radical damage is reflected in higher fluorescence intensity and can be measured as antioxidant capacity against the free radicals. The uniqueness of ORAC assay is that the reaction is driven to completion. This allows calculation of the area under the curve (AUC) and gives an absolute quantitation of antioxidancy as opposed to relative measurements in many other assays.
As noted, the longer it takes to observe a decrease in fluorescence, the higher the antioxidant (AO) potential. From the AUC for a given antioxidant, the AUC for blank is subtracted to give its ORAC value. The concentration of AO needed to give the same AUC values as Trolox is calculated and used to represent the Trolox equivalent AO Capacity (TEAC). Trolox is ((±)-6-Hydroxy-2,5,7,8-tetramethylchromane-2-carboxylic acid, CAS #53188-07-1), and is used as an internal control. […]
The inventive stilbene-pendant nitrones in the ORAC test solutions were at a concentration of 100 micromolar, while the concentrations of Trolox, Vitamin C, Vitamin E, BHT, PBN+BHT, and VAL-IPHA were at 100 micromolar. The TEAC values calculated from the ORAC values are listed the Table 2.
Consider `CC(C)(C)/[N+]([O-])=C/c1ccccc1` [PBN, 2-Phenyl-N-tert-butylnitrone], for which the “TEAC (Trolox equivalent AO Capacity)” value was “not very high”.

For `O=C1O[C@H]([C@@H](O)CO)C(O)=C1O` [Vitamin C], the “TEAC (Trolox equivalent AO Capacity)” value was 0.76. As for Vitamin E, the “TEAC (Trolox equivalent AO Capacity)” value was 0.13.
